The numbers were not newly measured in patent publication US20190380987A1, “COMPOSITION AND METHOD FOR TREATING MUCOLYTIC AND INFLAMMATORY AIRWAY CONDITIONS” (priority 2018, published 2019), which cites them from elsewhere.

One series has as its system CF patients. As to conditions: 2700 mg of oral NAC per day in divided doses of 900 mg, controls declined.

Consider `CC(=O)N[C@@H](CS)C(=O)O` [N-acetylcysteine], for which the lung function decline result in the series with CF patients is given as “did not experience lung function decline”. Further, the solubility in alcohol entry (alcohol) is on record as “soluble”. Besides, under “chloroform”, the solubility in chloroform entry was “practically insoluble”. The solubility in ether entry (ether) was “practically insoluble”. In addition, under “water”, the solubility in water result is on record as “soluble”.
